Values of other authors as cited in patent publication US11491171B2, “Synthetic composition and method for modulating emotion and mood disorders” (GLYCOM A/S, priority 2015, dated 2022).

Test system: mice

Row | Compound | behavioural responses during stressor exposure
1 | 6′-O-sialyllactose [6′-SL] | support normal behavioural responses
2 | CC(=O)N[C@H]1[C@H]([C@H](O)[C@H](O)CO)O[C@@](O[C@H]2[C@@H](O)[C@@H](CO)O[C@@H](O[C@H]3[C@H](O)[C@@H](O)C(O)O[C@@H]3CO)[C@@H]2O)(C(=O)O)C[C@@H]1O (some centres unmarked) [3′-SL, 3′-O-sialyllactose] | support normal behavioural responses
